Measured values taken from patent US11351145B2, “Quercetin-based composition for treating rhinosinusitis” (APHABIO THERAPEUTICS, priority 2017, dated 2022).
Marks after values point to notes of the source that are not given here.

What was measured:
Type in all cases: in vivo, rabbit
[1] = system: rhinosinusitis induced by lipopolysaccharide (LPS); assay: Histological scoring of sino-nasal inflammation (score 0-3) in rabbits with LPS-induced rhinosinusitis; details: for Overall therapeutic effect / activity against rhinosinusitis: conclusion of the histological examination, compared to non-treated or placebo-treated animals; for Epithelial desquamation / Mucous gland damage: score 0-3 (0 absence of damage, 1 slightly, 2 moderately, 3 strongly damaged); for Epithelial desquamation / Mucous gland damage / Leukocyte infiltrate of mucous membrane / Mononuclear infiltrate of mucous membrane: median (1st; 3rd quartile), n = 6; for Epithelial desquamation / Mucous gland damage / Leukocyte infiltrate of mucous membrane / Mononuclear infiltrate of mucous membrane / Inflammation degree in different zones: Olfactory region / Inflammation degree in different zones: Respiratory region / Inflammation degree in different zones: Vestibule / Inflammation type: Post-inflammatory hyperplasia of goblet cells / Inflammation type: acute catarrhal rhinosinusitis / Inflammation type: acute purulent rhinosinusitis: intranasal once daily for seven days; for Leukocyte infiltrate of mucous membrane / Mononuclear infiltrate of mucous membrane: score 0-3 (0 none, 1: 1 to 5, 2: 6 to 10, 3: more than 10 cells in the zone); for Inflammation degree in different zones: Olfactory region / Inflammation degree in different zones: Respiratory region / Inflammation degree in different zones: Vestibule / Inflammation type: Post-inflammatory hyperplasia of goblet cells / Inflammation type: acute catarrhal rhinosinusitis / Inflammation type: acute purulent rhinosinusitis: scoring from 0 to 3, median (quartiles)
Experimental: (§1) 42 male rabbits were used in this study. Animals were separated into seven groups, each containing six rabbits. The 1st group served as an untreated control, the second group was treated with a 0.9% NaCl solution, and five experimental groups were used to test the different formulations: onion peel extract, quercetin+2-(3,4-dihydroxybenzoyl)-2,4,6-trihydroxy-3(2H)-benzofuranone quercetin, quercetin-4′-glycoside and protocatechuic acid.
(§2) Rhinosinusitis was induced by introduction of 100 μL of 1% lipopoysaccharide (LPS) in each nasal cavity of the rabbits for three days (Dong-Hyun Kim et all, 2011).
(§3) The following concentrations of composition were tested:
(§4) onion peel water extract—1 mg/mL;
(§5) the mixture of quercetin—0.009 mg/mL and 2-(3,4-dihydroxybenzoyl)-2,4,6-trihydroxy-3(2H)-benzofuranone—0.001 mg/mL;
(§6) quercetin-4′-glycoside—0.25 mg/mL;
(§7) protocatechuic acid—0.25 mg/mL.
(§8) The compounds were diluted in solutions of 0.9-1% sodium chloride or in the solution containing 0.75% NaCl+0.25% NaHCO3 heated to 37° C. before administration. Except for the mixture of quercetin+2-(3,4-dihydroxybenzoyl)-2,4,6-trihydroxy-3(2H)-benzofuranone, which was suspension, all formulations were slightly opalescent-colored solutions.
(§9) 2 mL of the solutions was administered intranasally in each nasal cavity once daily for seven days. In order to get the maximal contact of nasal cavity with the tested substances, rabbits were kept in the “head down” position during administration.
(§10) The day after the last administration of the substances, animals were sacrificed by an overdose of a general anesthetics: Zoletil (Virbac, France) and Rometar (Bioveta, Czech Republic).
(§11) After macroscopic examinations, the nasal parts of rabbits' heads were fixed in 10% formaldehyde for 24 hours, then decalcified for 14 days in a hydrochloric acid/water (25:1) solution. Then, the noses of the animals were sectioned transversally at four levels: A—at the incisors; B— in a zone posterior to the incisors, C— at the second palatal ridge, and D—at the first premolar tooth. Tissues were then washed with water for 12 hours and embedded in paraffin using conventional methods. Histological sections of 3-5 μm were prepared from these tissues using microtome. In order to examine goblet cells and their glucosamine content, the tissue sections were stained with alcian blue at pH 2.5. Some tissue sections were re-stained with haematoxylin and eosin for further histological examinations.
(§12) Morphological investigation of histological preparations was performed using optical microscope CarlZeissAxioScopeA1 (Germany) at magnifications of 25×, 50×, 100×, 200× and 400×. Microphotographs of samples were taken using a digital camera AxioCamlCc 1 and AxioVisionRel.4.8 software (Germany). Morphometric measurements were taken using AxioVisionRel.4.8 software (Germany).
The appearance, severity of acute catarrhal rhinosinusitis, acute purulent rhinosinusitis and occurrence of post-inflammatory hyperplasia of goblet cells were evaluated by examining the degree of inflammatory lesions in various zones: vestibule, respiratory region, olfactory region and paranasal sinuses.
The degree of epithelial desquamation and mucociliary gland damage was scored along a scale from 0 to 3, where:
The degree of mononuclear and leukocyte cell infiltration was evaluated by scoring from 0 to 3, where:
0—no mononuclear cells present in the zone of examination;
1—1 to 5 mononuclear cells present in the zone of examination;
2—6 to 10 mononuclear cells present in the zone of examination;
3—more than 10 mononuclear cells present in the zone of examination.
All data were analyzed using descriptive statistics. The normality of data distribution was verified by Shapiro-Wilks test. In the case of normality, the mean and the standard error of the mean (s.e.m) were calculated and presented in tables together with n (number of values). […] The differences between groups were analyzed using parametric or non-parametric tests depending on the distribution type. […]

[2] = system: rhinosinusitis induced by lipopolysaccharide (LPS); assay: Goblet cell morphometric study (alcian blue staining) in rabbits with LPS-induced rhinosinusitis; details: for Number of alcian positive cells on 1 mm of epithelium / Number of goblet cells on 1 mm of epithelium / Ratio of alcian positive cells to total number of goblet cells, in %: rabbits, 2 mL intranasally in each nasal cavity once daily for seven days, M ± s.e.m., n = 6
Experimental: as §1, §2, §3, §4, §5, §6, §7, §8, §9, §10, §11, §12
Goblet cells were counted within 1 mm of the respiratory zone of the epithelium.
All data were analyzed using descriptive statistics. The normality of data distribution was verified by Shapiro-Wilks test. In the case of normality, the mean and the standard error of the mean (s.e.m) were calculated and presented in tables together with n (number of values). […] The differences between groups were analyzed using parametric or non-parametric tests depending on the distribution type. The analysis of normally distributed data was done using the unifactorial dispersion analysis test (ANOVA), and further post-hoc analysis was done using Tukey's method. The data not corresponding to the normal distribution were analyzed using the non-parametric Kruskal-Wallis test, and the differences between groups were analyzed using the Mann-Whitney test. The difference was determined at a significance level of 0.05.

[3] = system: rhinosinusitis induced by lipopolysaccharide (LPS); assay: Visual (macroscopic) examination of rabbits with LPS-induced rhinosinusitis; details: in words; after seven days of treatment
Experimental: as §1, §2, §8, §9
The nasal cavities of the animals were subjected to visual examinations immediately after euthanasia.

Compound | Epithelial desquamation (observation) ([1]; in words) | Overall therapeutic effect / activity against rhinosinusitis ([1]; in words) | Epithelial desquamation [1] | Mucous gland damage [1] | Leukocyte infiltrate of mucous membrane [1] | Mononuclear infiltrate of mucous membrane [1] | Inflammation degree in different zones: Olfactory region [1] | Inflammation degree in different zones: Respiratory region [1] | Inflammation degree in different zones: Vestibule [1] | Inflammation type: Post-inflammatory hyperplasia of goblet cells [1] | Inflammation type: acute catarrhal rhinosinusitis [1] | Inflammation type: acute purulent rhinosinusitis [1] | Change in the number of goblet cells on 1 mm of epithelium compared to control ([2]; in words, ANOVA and Tukey's test) | Number of alcian positive cells on 1 mm of epithelium [2] | Number of goblet cells on 1 mm of epithelium [2] | Ratio of alcian positive cells to total number of goblet cells, in % [2] [%] | Macroscopic (visual) examination findings [3] | Leucocyte cell infiltration of the mucous membranes versus control group ([1]; in words, Kruskal-Wallis and Mann-Whitney tests) | Acute purulent rhinosinusitis (observation) ([1]; in words) | Post-inflammatory hyperplasia of the goblet cells (observation) ([1]; in words)
O=c1c(O)c(-c2ccc(O[C@@H]3O[C@H](CO)[C@@H](O)[C@H](O)[C@H]3O)c(O)c2)oc2cc(O)cc(O)c12 [Quercetin-4′-glycoside, quercetin-4′-glycoside] | not observed | moderate activity | 0.0(0.0; 0.0)* score | 0.0(0.0; 1.0) score | 1.0(1.0; 2.0) score | 1.0 (1.0; 1.0) score | 0.5 | 1.0 | 0.0 | 1.0 | 1.0 | 0.0 | Increase | 21.8 ± 6.78 | 65.6 ± 6.03 | 35.8 ± 11.13 | No external changes were observed |  |  | 
O=C(O)c1ccc(O)c(O)c1 [Protocatechuic acid, protocatechuic acid] |  | moderate activity | 0.0(0.0; 1.0) score | 1.0(0.0; 1.0) score | 0.5(0.0; 1.0)* score | 1.0 (1.0; 1.0) score | 1.0 | 1.0 | 0.0 | 0.5 | 1.0 | 0.0 |  | 16.3 ± 5.82 | 44.0 ± 6.76 | 35.0 ± 9.01 | No external changes were observed | lower than in control group |  | 
O=c1c(O)c(-c2ccc(O)c(O)c2)oc2cc(O)cc(O)c12 [Quercetin, quercetin] |  |  | 0.5(0.0; 1.0) score | 0.5(0.0; 2.0) score | 2.0(2.0; 2.0) score | 1.0 (1.0; 1.0) score | 1.0 | 2.0 | 0.0 | 0.0 | 2.0 | 0.0 |  | 21.3 ± 6.49 | 43.0 ± 6.46 | 47.2 ± 12.33 | No external changes were observed |  | no sign | no sign
